Results on one compound are retold here after paper PMC8688847, “Implications of Membrane Binding by the Fe-S Cluster-Containing N-Terminal Domain in the Drosophila Mitochondrial Replicative DNA Helicase” (Frontiers in Genetics, 2021).

For assay [1], the target named is T1, FL Hs mtDNA helicase (TWINKLE) (Homo sapiens, UniProt Q96RR1).
T1 construct: gene TWNK; full-length, recombinant, Ni-NTA purified
T1 sequence (Q96RR1 32-684): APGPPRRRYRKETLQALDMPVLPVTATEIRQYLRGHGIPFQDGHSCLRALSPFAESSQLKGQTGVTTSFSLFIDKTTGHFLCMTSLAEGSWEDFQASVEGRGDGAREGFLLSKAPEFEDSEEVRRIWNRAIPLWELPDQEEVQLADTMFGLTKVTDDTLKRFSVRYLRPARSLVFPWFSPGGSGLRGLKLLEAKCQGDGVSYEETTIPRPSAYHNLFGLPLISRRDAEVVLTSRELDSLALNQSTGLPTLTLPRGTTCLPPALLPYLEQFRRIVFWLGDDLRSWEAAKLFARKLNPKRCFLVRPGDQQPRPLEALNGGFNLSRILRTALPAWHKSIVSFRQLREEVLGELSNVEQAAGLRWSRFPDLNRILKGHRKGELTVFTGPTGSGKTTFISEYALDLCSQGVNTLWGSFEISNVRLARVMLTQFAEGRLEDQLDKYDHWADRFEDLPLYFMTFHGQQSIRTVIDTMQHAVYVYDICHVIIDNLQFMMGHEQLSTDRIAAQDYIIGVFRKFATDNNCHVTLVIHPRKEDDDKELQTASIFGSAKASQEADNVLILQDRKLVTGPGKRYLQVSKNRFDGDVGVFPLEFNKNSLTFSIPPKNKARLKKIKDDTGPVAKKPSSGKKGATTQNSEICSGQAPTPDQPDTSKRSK
Description: malachite green ATPase assay. It is filed as biochemical. Conditions: 8 mM Mg acetate, pH 7.5, room temperature.

For another assay, the target named is T2, ΔN-helicase (P66) (Homo sapiens, UniProt Q96RR1).
T2 construct: gene TWNK; variant lacking the N-terminus, termed P66 in Ziebarth et al. 2007
T2 sequence (Q96RR1 85-684 limits assumed): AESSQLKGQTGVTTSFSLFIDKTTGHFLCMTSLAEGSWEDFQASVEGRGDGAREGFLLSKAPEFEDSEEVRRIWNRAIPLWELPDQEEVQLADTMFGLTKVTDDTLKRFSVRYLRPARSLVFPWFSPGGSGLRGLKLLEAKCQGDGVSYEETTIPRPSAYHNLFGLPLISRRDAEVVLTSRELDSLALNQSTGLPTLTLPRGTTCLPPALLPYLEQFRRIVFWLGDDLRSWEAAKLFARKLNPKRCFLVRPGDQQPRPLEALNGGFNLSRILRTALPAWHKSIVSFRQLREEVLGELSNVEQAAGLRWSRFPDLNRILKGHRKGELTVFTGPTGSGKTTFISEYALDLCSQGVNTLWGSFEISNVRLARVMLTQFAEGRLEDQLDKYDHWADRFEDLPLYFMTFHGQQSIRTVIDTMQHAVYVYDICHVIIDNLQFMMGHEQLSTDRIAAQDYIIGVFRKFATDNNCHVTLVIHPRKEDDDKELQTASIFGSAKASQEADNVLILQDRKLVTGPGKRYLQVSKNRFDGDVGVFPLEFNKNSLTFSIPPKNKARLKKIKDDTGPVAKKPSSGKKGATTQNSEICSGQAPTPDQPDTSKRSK
As to the kind of experiment: malachite green ATPase assay. It is filed as biochemical. The note with it: 8 mM Mg acetate, pH 7.5, room temperature.

For the compound `Nc1ncnc2c1ncn2[C@@H]1O[C@H](COP(=O)(O)OP(=O)(O)OP(=O)(O)O)[C@@H](O)[C@H]1O` [ATP], the “malachite green ATPase assay” value is “ATP hydrolysis of FL helicase was increased with added calf thymus DNA” in assay [1] and “the ATPase activity of ΔN-helicase, termed P66” on ΔN-helicase (P66).
